Assay results as given in patent US4443468A, “Benzofuran derivatives, process for their preparation and their therapeutic applications” (Laboratoires Jacques Logeais, priority 1978, dated 1984).
Counter-ions that a name gives are not always drawn. Like-named read-outs stand apart in the source and are kept apart here.

Key:
Type in all cases: in vivo
Acute toxicity in mice = details: mouse, in vivo, single dose
Procedure: (§1) (a) Acute toxicity in mice
(§2) Each compound was administered orally, intra-peritoneally, or intravenously as a single dose.

[1] = test system: maximum stimulation heart rate (FMS); test: Maximum stimulation heart rate (FMS) in rabbits
Procedure: (§3) The anti-dysrhythmic activity of the compounds of the formula (I) was evaluated according to the following pharmacological tests:
maximum stimulation heart rate (FMS)
The FMS, as determined in vivo in rabbits by cardiac stimulation by means of a stimulation probe placed in the left auricular cavity, provides an overall determination of the duration of the refractory period of the conductive routes and of the fibres of the myocardium.

[2] = test system: dysrhythmia on central stimulation; test: Dysrhythmia on central stimulation in rabbits
Procedure: The anti-dysrhythmic activity of the compounds of the formula (I) was evaluated according to the following pharmacological tests: […]

[3] = test system: aconitine induced dysrhythmias; test: Aconitine induced dysrhythmias in rats
Procedure: as §3
aconitine induced dysrhythmias in rats: this agent has a deeply perturbating effect on the ionic permeability of the membranes;

[4] = test system: anoxia induced dysrhythmias; test: Anoxia induced dysrhythmias in rats, after pre-treatment with a subliminal dosage of aconitine
Procedure: as §3
anoxia induced dysrhythmias in rats, after pre-treatment with a subliminal dosage of aconitine (combination of the effects of a sympathetic stimulation with those due to perturbations of ionic conductions);

mice = test: Acute toxicity in mice; details: single dose, behavior observed
Procedure: as §1, §2

[5] = test system: ouabaine induced dysrhythmias; test: Ouabaine induced dysrhythmias in guinea-pigs; details: 10-20 mg/kg i.v., guinea-pig
Procedure: as §3
ouabaine induced dysrhythmias in guinea-pigs: at toxic dosages, ouabaine affects transmembrane ionic exchanges; on the other hand, it induces a concomitant sympathetic activation.

[6] = test system: dysrhythmias induced by localized ischemia; test: Method according to Harris, in dogs (coronary ligation); details: 10 mg/kg i.v.
Procedure: as §3
method according to Harris, in dogs: coronary ligation and dysrhythmias induced by localized ischemia.

[7] = intravenous, read-out: LD50, i.v.
[8] = ip, intra-peritoneal, read-out: LD50, i.p.

NC1=NCC(c2cc3ccccc3o2)C1 (stereo not shown) [Example 1, 2-Amino-4-(2-benzofuryl)Δ-1-pyrroline hydrochloride]
LD50 (Acute toxicity in mice; [7]): 46 mg/kg
LD50 (Acute toxicity in mice; [8]): 58 mg/kg
LD50 (Acute toxicity in mice; oral, read-out: LD50, p.o.): 115 mg/kg

CNC1=NCC(c2cc3ccccc3o2)C1 (stereo not shown) [Example 2, 2-Methylamino-4-(2-benzofuryl)Δ-1-pyrroline hydrochloride]
LD50 (Acute toxicity in mice; [8]): 58 mg/kg
LD50 (Acute toxicity in mice; oral, read-out: LD50, p.o.): > 200 mg/kg
FMS Rabbit ([1]; 7.5 mg/kg i.v.): +
Central stimulation Rabbit ([2]; 3 mg/kg i.v.): +
Aconitine Rat ([3]; 10 mg/kg i.v.): +

CC(C)NC1=NCC(c2cc3ccccc3o2)C1 (stereo not shown) [Example 3, 2-Isopropylamino-4-(2-benzofuryl)Δ-1-pyrroline hydrochloride]
LD50 (Acute toxicity in mice; [8]): 58 mg/kg
LD50 (Acute toxicity in mice; oral, read-out: LD50, p.o.): 200 mg/kg
Anoxia Rat ([4]; 10 mg/kg i.v.): +

CN(C)C1=NCC(c2cc3ccccc3o2)C1 (stereo not shown) [Example 4, 2-Dimethylamino-4-(2-benzofuryl)Δ-1-pyrroline hydrochloride]
LD50 (Acute toxicity in mice; [7]): 38.5 mg/kg
LD50 (Acute toxicity in mice; oral, read-out: LD50, p.o.): 240 mg/kg
Remarks (acute toxicity) (mice): convulsions
FMS Rabbit ([1]; 2.5 mg/kg i.v.): +
Central stimulation Rabbit ([2]; 5 mg/kg i.v.): ++
Anoxia Rat ([4]; 10-20 mg/kg i.v.): ++
Ouabaine Cobaye [5]: +
Harris Ligation Dog [6]: +

CCN(CC)C1=NCC(c2cc3ccccc3o2)C1 (stereo not shown) [Example 5, 2-Diethylamino-4-(2-benzofuryl)Δ-1-pyrroline fumarate]
LD50 (Acute toxicity in mice; [8]): 58 mg/kg
LD50 (Acute toxicity in mice; oral, read-out: LD50, p.o.): 180 mg/kg

c1ccc(NC2=NCC(c3cc4ccccc4o3)C2)cc1 (stereo not shown) [Example 6, 2-Anilino-4-(2-benzofuryl)Δ-1-pyrroline hydrochloride]
LD50 (Acute toxicity in mice; [8]): 58 mg/kg
LD50 (Acute toxicity in mice; oral, read-out: LD50, p.o.): 110 mg/kg
Remarks (acute toxicity) (mice): Hyperesthesia
FMS Rabbit ([1]; 2.5 mg/kg i.v.): +
Central stimulation Rabbit ([2]; 2.5 mg/kg i.v.): +
Anoxia Rat ([4]; i.v., dose not given): 0

c1ccc(CCNC2=NCC(c3cc4ccccc4o3)C2)cc1 (stereo not shown) [Example 7, 2-Phenethylamino-4-(2-benzofuryl)Δ-1-pyrroline hydrochloride]
LD50 (Acute toxicity in mice; [8]): 98 mg/kg
LD50 (Acute toxicity in mice; oral, read-out: LD50, p.o.): > 200 mg/kg
Remarks (acute toxicity) (mice): Convulsions
FMS Rabbit ([1]; 2 mg/kg i.v.): +
Central stimulation Rabbit ([2]; i.v., dose not given): 0
Aconitine Rat ([3]; 5 mg/kg i.v.): +

c1ccc2oc(C3CN=C(N4CCCC4)C3)cc2c1 (stereo not shown) [Example 8, 2-Pyrrolidino-4-(2-benzofuryl)Δ-1-pyrroline hydrochloride]
LD50 (Acute toxicity in mice; [8]): 76 mg/kg
LD50 (Acute toxicity in mice; oral, read-out: LD50, p.o.): 200 mg/kg
Aconitine Rat ([3]; 10 mg/kg i.v.): +
Anoxia Rat ([4]; 10 mg/kg i.v.): +

c1ccc2oc(C3CN=C(N4CCOCC4)C3)cc2c1 (stereo not shown) [Example 9, 2-Morpholino-4-(2-benzofuryl)Δ-1-pyrroline hydrochloride]
LD50 (Acute toxicity in mice; [8]): 142 mg/kg
LD50 (Acute toxicity in mice; oral, read-out: LD50, p.o.): > 200 mg/kg
Anoxia Rat ([4]; i.v., dose not given): 0

CN1CCN(C2=NCC(c3cc4ccccc4o3)C2)CC1 (stereo not shown) [Example 10, 2-(4-Methyl-piperazino)-4-(2-benzofuryl)Δ-1-pyrroline methanesulfonate]
LD50 (Acute toxicity in mice; [8]): 142 mg/kg
LD50 (Acute toxicity in mice; oral, read-out: LD50, p.o.): > 200 mg/kg
Anoxia Rat ([4]; 10 mg/kg i.v.): +
